Test results published in patent US12473282B2, “Biphenyl fluorine double bond derivative, preparation method therefor, and pharmaceutical application thereof” (Abbisko Therapeutics Co., Ltd., priority 2020, dated 2025).

What was measured:
[1] = target: interaction between PD-1 and PD-L1 (Homo sapiens (Human), UniProt Q9NZQ7); test: PD1-PDL1 HTRF binding activity test (Cisbio PD-1/PD-L1 binding assay kit)
Description: I. PD1-PDL1 HTRF Binding Activity Test
The effect of compounds of the examples of the present invention on the interaction between PD-1 and PD-L1 was determined by the PD-1/PD-L1 binding assay kit from Cisbio (#64ICP01PEG or 64ICP01PEH). The detailed experimental process was as follows: • 1. Pre-diluted compound solution, 4 μL of Tag1-PD-L1 and 4 μL of Tag2-PD1 were added to each well of a 384-well plate; • 2. After the mixture was incubated at room temperature for 15 min, 5 μL of anti-Tag1-Eu3+ antibody and 5 μL of anti-Tag2-XL665 antibody were then added; • 3. After incubated for 2 hrs at room temperature or overnight at 4° C., plates were read on Envision of Pelkin Elmer; and readings at 665 nm and 620 nm were recorded, and the ratio of the two readings was taken as a reading for each well; • 4. The reading of each well after compound treatment was compared with the reading of DMSO treated wells to obtain the percent inhibition of the compound; • 5. IC50 values of compounds and positive compounds of the examples of the present invention were determined by non-linear regression analysis of percent inhibition at different compound concentrations. II. Jurkat Reporter Gene Cellular Assay

[2] = Jurkat reporter gene cellular assay; format: cell-based; details: Homo sapiens; Jurkat/NF-κB-luc/PD1 + Raji-PD-L1 coculture, OKT3 1 μg/mL, 6 hrs, activation fold; read-out: Cell Activity EC50
How it was run: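 Jurkat cells stably expressing human PD-1 and NF-κB-luciferase co-cultured with PD-L1-expressing Raji cells (5×10^4 each/well) under OKT3 (1 μg/mL final) with compound. Raji cells preincubated 20 min; luminescence read 6 h after Jurkat addition. EC50 from non-linear regression of fold activation over DMSO.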

interaction between PD-1 and PD-L1, sequence (Q9NZQ7 19-238): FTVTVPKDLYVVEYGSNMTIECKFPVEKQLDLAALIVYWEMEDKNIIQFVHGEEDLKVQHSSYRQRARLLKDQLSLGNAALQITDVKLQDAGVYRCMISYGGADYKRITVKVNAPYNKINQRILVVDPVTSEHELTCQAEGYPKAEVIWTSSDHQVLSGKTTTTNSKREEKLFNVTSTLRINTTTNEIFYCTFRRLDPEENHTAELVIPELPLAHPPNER

Row | IC50 [1] | EC50 [2] | SMILES
1 | 0.419 nM | 62.2 nM | C[C@@H](O)CN1CCc2c(nc(/C(F)=C/c3cccc(-c4cccc(NC(=O)c5nc6c(n5C)CCN(CCC57CCC(C(=O)O)(CC5)C7)C6)c4Cl)c3Cl)n2C)C1 [Example 7, (R,Z)-4-(2-(2-((2,2′-dichloro-3′-(2-fluoro-2-(5-(2-hydroxypropyl)-1-methyl-4,5,6,7-tetrahydro-1H-imidazo[4,5-c]pyridin-2-yl)vinyl)-[1,1′-biphenyl]-3-yl)carbamoyl)-1-methyl-1,4,6,7-tetrahydro-5H-imidazo[4,5-c]pyridin-5-yl)ethyl)bicyclo[2.2.1]heptane-1-carboxylic acid]
2 | 0.516 nM | 97.5 nM | CC(C)N1CCc2c(nc(/C(F)=C/c3cccc(-c4cccc(NC(=O)c5nc6c(n5C)CCN(CCC57CCC(C(=O)O)(CC5)C7)C6)c4Cl)c3Cl)n2C)C1 [Example 8, (Z)-4-(2-(2-((2,2′-dichloro-3′-(2-fluoro-2-(5-isopropyl-1-methyl-4,5,6,7-tetrahydro-1H-imidazo[4,5-c]pyridin-2-yl)vinyl)-[1,1′-biphenyl]-3-yl)carbamoyl)-1-methyl-1,4,6,7-tetrahydro-5H-imidazo[4,5-c]pyridin-5-yl)ethyl)bicyclo[2.2.1]heptane-1-carboxylic acid]
3 | 0.191 nM | 133 nM | COc1cc(/C(F)=C/c2cccc(-c3cccc(NC(=O)c4nc5c(n4C)CCN(CCC46CCC(C(=O)O)(CC4)C6)C5)c3Cl)c2Cl)ncc1CNCCO [Example 16, (Z)-4-(2-(2-((2,2′-dichloro-3′-(2-fluoro-2-(5-(((2-hydroxyethyl)amino)methyl)-4-methoxypyridin-2-yl)vinyl)-[1,1′-biphenyl]-3-yl)carbamoyl)-1-methyl-1,4,6,7-tetrahydro-5H-imidazo[4,5-c]pyridin-5-yl)ethyl)bicyclo[2.2.1]heptane-1-carboxylic acid]
4 | 0.331 nM | 464 nM | COc1cc(/C(F)=C/c2cccc(-c3cccc(NC(=O)c4nc5c(n4C)CCN(C[C@H]4CC[C@H](C(=O)O)CC4)C5)c3C)c2C)ncc1CNC[C@@H]1CCC(=O)N1 [Example 17, (1R,4R)-4-((2-((3′-((Z)-2-fluoro-2-(4-methoxy-5-(((((S)-5-oxopyrrolidin-2-yl)methyl)amino)methyl)pyridin-2-yl)vinyl)-2,2′-dimethyl-[1,1′-biphenyl]-3-yl)carbamoyl)-1-methyl-1,4,6,7-tetrahydro-5H-imidazo[4,5-c]pyridin-5-yl)methyl)cyclohexane-1-carboxylic acid]
5 | 0.489 nM | 85.8 nM | COc1cc(/C(F)=C/c2cccc(-c3cccc(NC(=O)c4nc5c(n4C)CCN(CCC46CCC(C(=O)O)(CC4)C6)C5)c3Cl)c2Cl)ncc1CN1CC(C)(O)C1 [Example 33, (Z)-4-(2-(2-((2,2′-dichloro-3′-(2-fluoro-2-(5-((3-hydroxy-3-methylazetidin-1-yl)methyl)-4-methoxypyridin-2-yl)vinyl)-[1,1′-biphenyl]-3-yl)carbamoyl)-1-methyl-1,4,6,7-tetrahydro-5H-imidazo[4,5-c]pyridin-5-yl)ethyl)bicyclo[2.2.1]heptane-1-carboxylic acid]
6 | 0.352 nM | 80.4 nM | COc1cc(/C(F)=C/c2cccc(-c3cccc(NC(=O)c4nc5c(n4C)CCN(CCC46CCC(C(=O)O)(CC4)C6)C5)c3Cl)c2Cl)ncc1CNC[C@@H]1CCC(=O)N1 [Example 34, (S,Z)-4-(2-(2-((2,2′-dichloro-3′-(2-fluoro-2-(4-methoxy-5-((((5-oxopyrrolidin-2-yl)methyl)amino)methyl)pyridin-2-yl)vinyl)-[1,1′-biphenyl]-3-yl)carbamoyl)-1-methyl-1,4,6,7-tetrahydro-5H-imidazo [4,5-c]pyridin-5-yl)ethyl)bicyclo[2.2.1]heptane-1-carboxylic acid]
7 | 0.638 nM | 93.1 nM | COc1cc(/C(F)=C/c2cccc(-c3cccc(NC(=O)c4nc5c(n4C)CCN(CCC46CCC(C(=O)O)(CC4)C6)C5)c3Cl)c2Cl)ncc1CN[C@@H]1CCOC[C@H]1O [Example 35, 4-(2-(2-((2,2′-dichloro-3′-((Z)-2-fluoro-2-(5-((((3S,4R)-3-hydroxytetrahydro-2H-pyran-4-yl)amino)methyl)-4-methoxypyridin-2-yl)vinyl)-[1,1′-biphenyl]-3-yl)carbamoyl)-1-methyl-1,4,6,7-tetrahydro-5H-imidazo[4,5-c]pyridin-5-yl)ethyl)bicyclo[2.2.1]heptane-1-carboxylic acid]
8 | 0.306 nM | 3130 nM | Cn1c(C(=O)Nc2cccc(-c3cccc(/C=C(\F)c4cc(C5CC5)c(CN5CC(C)(O)C5)cn4)c3Cl)c2Cl)nc2c1CCN(CCC13CCC(C(=O)O)(CC1)C3)C2 [Example 36, (Z)-4-(2-(2-((2,2′-dichloro-3′-(2-(4-cyclopropyl-5-((3-hydroxy-3-methylazetidin-1-yl)methyl)pyridin-2-yl)-2-fluorovinyl)-[1,1′-biphenyl]-3-yl)carbamoyl)-1-methyl-1,4,6,7-tetrahydro-5H-imidazo[4,5-c]pyridin-5-yl)ethyl)bicyclo[2.2.1]heptane-1-carboxylic acid]
9 | 0.202 nM | 178 nM | COc1cc(/C(F)=C/c2cccc(-c3cccc(NC(=O)c4nc5c(n4C)CCN(CCC46CCC(C(=O)O)(CC4)C6)C5)c3Cl)c2Cl)ncc1CN[C@H](CO)C(=O)O [Example 37, (R,Z)-4-(2-(2-((3′-(2-(5-(((1-carboxy-2-hydroxyethyl)amino)methyl)-4-methoxypyridin-2-yl)-2-fluorovinyl)-2,2′-dichloro-[1,1′-biphenyl]-3-yl)carbamoyl)-1-methyl-1,4,6,7-tetrahydro-5H-imidazo[4,5-c]pyridin-5-yl)ethyl)bicyclo[2.2.1]heptane-1-carboxylic acid]
10 | 0.332 nM | 977 nM | COc1cc(/C(F)=C/c2cccc(-c3cccc(NC(=O)c4nc5c(n4C)CCN(CCC46CCC(C(=O)O)(CC4)C6)C5)c3Cl)c2Cl)ncc1CNCC(F)F [Example 38, (Z)-4-(2-(2-((2,2′-dichloro-3′-(2-(5-(((2,2-difluoroethyl)amino)methyl)-4-methoxypyridin-2-yl)-2-fluorovinyl)-[1,1′-biphenyl]-3-yl)carbamoyl)-1-methyl-1,4,6,7-tetrahydro-5H-imidazo[4,5-c]pyridin-5-yl)ethyl)bicyclo[2.2.1]heptane-1-carboxylic acid]
11 | 0.238 nM | 64.7 nM | COc1cc(/C(F)=C/c2cccc(-c3cccc(NC(=O)c4nc5c(n4C)CCN(CCC46CCC(C(=O)O)(CC4)C6)C5)c3Cl)c2Cl)ncc1CN1CC[C@@H](O)C1 [Example 39, (R,Z)-4-(2-(2-((2,2′-dichloro-3′-(2-fluoro-2-(5-((3-hydroxypyrrolidin-1-yl)methyl)-4-methoxypyridin-2-yl)vinyl)-[1,1′-biphenyl]-3-yl)carbamoyl)-1-methyl-1,4,6,7-tetrahydro-5H-imidazo[4,5-c]pyridin-5-yl)ethyl)bicyclo[2.2.1]heptane-1-carboxylic acid]
12 |  | 56.5 nM | COc1cc(/C(F)=C/c2cccc(-c3cccc(NC(=O)c4nc5c(n4C)CCN(CCC46CCC(C(=O)O)(CC4)C6)C5)c3Cl)c2Cl)ncc1CN1CC[C@H](C)C1 [Example 78, (S,Z)-4-(2-(2-((2,2′-dichloro-3′-(2-fluoro-2-(4-methoxy-5-((3-methylpyrrolidin-1-yl)methyl)pyridin-2-yl)vinyl)-[1,1′-biphenyl]-3-yl)carbamoyl)-1-methyl-1,4,6,7-tetrahydro-5H-imidazo[4,5-c]pyridin-5-yl)ethyl)bicyclo[2.2.1]heptane-1-carboxylie acid]
